The results in this text go back to patent US20240228504A1, “SUBSTITUTED TRICYCLIC AMIDES, ANALOGUES THEREOF, AND METHODS USING SAME” (Arbutus Biopharma Corporation, priority 2020, published 2024).

The structures appear in SMILES notation.

One experiment deals with HBV rcDNA in HepDE19 cells. The experiment can be described thus: HepDE19 assay with bDNA quantitation of HBV rcDNA. It counts as cell-based, hepatitis B virus. Particulars: HepDE19 assay, inhibition of rcDNA formation, bDNA quantitation; read-out: DE-19bDNA EC50.
For the compound `CN(C(=O)c1cc(F)c(Cl)c(F)c1)C1CNCc2[nH]c(=O)c3cc(F)c(F)cc3c21` (single isomer, unassigned) [Compound 168, 4-Chloro-N-(8,9-difluoro-6-oxo-1,2,3,4,5,6-hexahydrobenzo[c][1,7]naphthyridin-1-yl)-3,5-difluoro-N-methylbenzamide], the EC50 was found to be 11.3 µM.
Same read-out and setting: under `CN(C(=O)c1cc(F)c(Cl)c(F)c1)C1CNCc2[nH]c(=O)c3cc(F)c(F)cc3c21` (single isomer, unassigned) [Compound 169, 4-Chloro-N-(8,9-difluoro-6-oxo-1,2,3,4,5,6-hexahydrobenzo[c][1,7]naphthyridin-1-yl)-3,5-difluoro-N-methylbenzamide] stands 0.04 µM; under `CN(C(=O)c1cc(F)c(Br)c(F)c1)C1CNCc2[nH]c(=O)c3cc(F)ccc3c21` (single isomer, unassigned) [Compound 170, 4-Bromo-3,5-difluoro-N-(8-fluoro-6-oxo-1,2,3,4,5,6-hexahydrobenzo[c][1,7]naphthyridin-1-yl)-N-methylbenzamide], 22 µM.
Still for that read-out and setting: the same measure for `CN(C(=O)c1cc(F)c(Br)c(F)c1)C1CNCc2[nH]c(=O)c3cc(F)ccc3c21` (single isomer, unassigned) [Compound 171, 4-Bromo-3,5-difluoro-N-(8-fluoro-6-oxo-1,2,3,4,5,6-hexahydrobenzo[c][1,7]naphthyridin-1-yl)-N-methylbenzamide]: 0.51 µM; for `CN(C(=O)c1cc(F)c(Cl)c(F)c1)C1COCc2[nH]c(=O)c3cc(F)ccc3c21` (single isomer, unassigned) [Compound 174, 4-Chloro-3,5-difluoro-N-(8-fluoro-6-oxo-2,4,5,6-tetrahydro-1H-pyrano[3,4-c]isoquinolin-1-yl)-N-methylbenzamide]: 5.1 µM; for `CN(C(=O)c1cc(F)c(Cl)c(F)c1)C1COCc2[nH]c(=O)c3cc(F)ccc3c21` (single isomer, unassigned) [Compound 175, 4-Chloro-3,5-difluoro-N-(8-fluoro-6-oxo-2,4,5,6-tetrahydro-1H-pyrano[3,4-c]isoquinolin-1-yl)-N-methylbenzamide]: 0.03 µM.
Same read-out and setting: the same measure for `CN(C(=O)c1cc(F)c(C(F)F)c(F)c1)C1COCc2[nH]c(=O)c3cc(F)ccc3c21` (single isomer, unassigned) [Compound 178, 4-(Difluoromethyl)-3,5-difluoro-N-(8-fluoro-6-oxo-1,4,5,6-tetrahydro-2H-pyrano[3,4-c]isoquinolin-1-yl)-N-methylbenzamide]: 7.4 µM.
In the case of `CN(C(=O)c1cc(F)c(C(F)F)c(F)c1)C1COCc2[nH]c(=O)c3cc(F)ccc3c21` (single isomer, unassigned) [Compound 179, 4-(Difluoromethyl)-3,5-difluoro-N-(8-fluoro-6-oxo-1,4,5,6-tetrahydro-2H-pyrano[3,4-c]isoquinolin-1-yl)-N-methylbenzamide], the EC50 is 0.05 µM.
The same measure, in the same setting: under `CN(C(=O)c1cc2c(C(F)F)cccc2[nH]1)C1COCc2[nH]c(=O)c3cc(F)ccc3c21` (single isomer, unassigned) [Compound 181, 4-(Difluoromethyl)-N-(8-fluoro-6-oxo-1,4,5,6-tetrahydro-2H-pyrano[3,4-c]isoquinolin-1-yl)-N-methyl-1H-indole-2-carboxamide] stands 5.5 µM; under `CN(C(=O)c1cc2c(C(F)F)cccc2[nH]1)C1COCc2[nH]c(=O)c3cc(F)ccc3c21` (single isomer, unassigned) [Compound 182, 4-(Difluoromethyl)-N-(8-fluoro-6-oxo-1,4,5,6-tetrahydro-2H-pyrano[3,4-c]isoquinolin-1-yl)-N-methyl-1H-indole-2-carboxamide], 0.75 µM.
Still for that read-out and setting: the same measure for `CN(C(=O)c1cc(F)c(C(F)F)c(F)c1)C1CNCc2[nH]c(=O)c3cc(F)c(F)cc3c21` (single isomer, unassigned) [Compound 184, N-(8,9-Difluoro-6-oxo-1,2,3,4,5,6-hexahydrobenzo[c][1,7]naphthyridin-1-yl)-4-(difluoromethyl)-3,5-difluoro-N-methylbenzamide]: 0.07 µM; for `CN(C(=O)c1cc(F)c(C(F)F)c(F)c1)C1CNCc2[nH]c(=O)c3cc(F)ccc3c21` (single isomer, unassigned) [Compound 185, 4-(Difluoromethyl)-3,5-difluoro-N-(8-fluoro-6-oxo-1,2,3,4,5,6-hexahydrobenzo[c][1,7]naphthyridin-1-yl)-N-methylbenzamide]: 24 µM; for `CN(C(=O)c1cc(F)c(C(F)F)c(F)c1)C1CNCc2[nH]c(=O)c3cc(F)ccc3c21` (single isomer, unassigned) [Compound 186, 4-(Difluoromethyl)-3,5-difluoro-N-(8-fluoro-6-oxo-1,2,3,4,5,6-hexahydrobenzo[c][1,7]naphthyridin-1-yl)-N-methylbenzamide]: 0.2 µM.
Turning to `CN(C(=O)c1cc2c(C(F)F)cccc2[nH]1)C1CNCc2[nH]c(=O)c3cc(F)c(F)cc3c21` (single isomer, unassigned) [Compound 207, N-(8,9-Difluoro-6-oxo-1,2,3,4,5,6-hexahydrobenzo[c][1,7]naphthyridin-1-yl)-4-(difluoromethyl)-N-methyl-1H-indole-2-carboxamide], the EC50 was determined as 5.6 µM.
On the same count and under the same terms, the same measure for `CN(C(=O)c1cc2c(C(F)F)cccc2[nH]1)C1CNCc2[nH]c(=O)c3cc(F)c(F)cc3c21` (single isomer, unassigned) [Compound 208, N-(8,9-Difluoro-6-oxo-1,2,3,4,5,6-hexahydrobenzo[c][1,7]naphthyridin-1-yl)-4-(difluoromethyl)-N-methyl-1H-indole-2-carboxamide]: 0.03 µM; for `CN(C(=O)c1cc2c(C(F)F)cccc2[nH]1)C1CNCc2[nH]c(=O)c3cc(F)ccc3c21` (single isomer, unassigned) [Compound 209, N-(8-Fluoro-6-oxo-1,2,3,4,5,6-hexahydrobenzo[c][1,7]naphthyridin-1-yl)-4-(difluoromethyl)-N-methyl-1H-indole-2-carboxamide]: 4.4 µM; for `CN(C(=O)c1cc2c(C(F)F)cccc2[nH]1)C1CNCc2[nH]c(=O)c3cc(F)ccc3c21` (single isomer, unassigned) [Compound 210, N-(8-Fluoro-6-oxo-1,2,3,4,5,6-hexahydrobenzo[c][1,7]naphthyridin-1-yl)-4-(difluoromethyl)-N-methyl-1H-indole-2-carboxamide]: 0.04 µM.

The same experiment, now with this note: Hepatitis B virus, HepDE19, HepDE19 assay, inhibition of rcDNA formation, bDNA quantitation; read-out: DE-19bDNA EC50.
Consider `CN(C(=O)c1cc(F)c(Cl)c(F)c1)C1CNCc2[nH]c(=O)c3cc(F)ccc3c21` (single isomer, unassigned) [Compound 176, 4-Chloro-3,5-difluoro-N-(8-fluoro-6-oxo-1,2,3,4,5,6-hexahydrobenzo[c][1,7]naphthyridin-1-yl)-N-methylbenzamide], for which the EC50 amounted to 19.6 µM.
Same read-out and setting: under `CN(C(=O)C(N)c1ccc(Cl)cc1)[C@@H]1COCc2[nH]c(=O)c3cc(F)c(F)cc3c21` (single isomer, unassigned) [Compound 199] stands 14.7 µM; under `CN(C(=O)C(N)c1cccc(Cl)c1)[C@@H]1COCc2[nH]c(=O)c3cc(F)c(F)cc3c21` (single isomer, unassigned) [Compound 202], 16 µM.
